system: not listed separately; assay: solution and stable suspension of citral; type: physicochemical; details: solution
From the text: (§1) In one embodiment the terpene component includes one or more terpenes which contain oxygen. Citral, for example citral 95, is an oxygenated […], C10H16O CAS No. 5392-40-5 (3,7-dimethyl-2,6-octadien-1-a1). A stable suspension of citral can be formed up to about 2500 ppm. Citral can be made into a solution at up to about 500 ppm. A stable suspension of hollow glucan particles incorporating citral of 25 ppt citral can be made.
as §1, with “(3,7-dimethyl-2,6-octadien-1-a1) .” for “(3,7-dimethyl-2,6-octadien-1-a1).”

| SMILES | citral can be made into a solution at up to |
| --- | --- |
| CC(C)=CCCC(C)=CC=O (mixture of isomers) [Citral, 3,7-dimethyl-2,6-octadien-1-a1] | about 500 ppm |

same assay, conditions: suspension

| SMILES | stable suspension of citral can be formed up to |
| --- | --- |
| CC(C)=CCCC(C)=CC=O (mixture of isomers) [Citral, 3,7-dimethyl-2,6-octadien-1-a1] | about 2500 ppm |

system: hematophagous arthropods; assay: terpenes fatal to hematophagous arthropods (test not described); details: not given

| SMILES | fatal to hematophagous arthropods |
| --- | --- |
| CC(=O)/C=C/C1=C(C)CCCC1(C)C [beta-ionone] | fatal |
| C=C(C)C1CC=C(C)C(=O)C1 (stereo not drawn) [carvone] | fatal |
| C=CC(C)(O)CCC=C(C)C (stereo not drawn) [linalool] | fatal |
| C=C(C)[C@H]1CC=C(C)CC1 [redistilled limonene, limonene] | fatal |
| C=CCc1ccc(O)c(OC)c1 [eugenol] | fatal |
| CC(C)=CCC/C(C)=C/CO [geraniol] | fatal |
| C=CC(=C)CCC=C(C)C [myrcene] | fatal |

Reference: patent US20160278367A1, “Pesticidal Composition” (priority 2013, published 2016)
